The values below are quoted from earlier work in patent publication US7601526B2 (priority 2004, dated 2009).

For the data set, the system named is F. tularensis.

With `[H]/N=C(/N)N[C@H]1[C@H](O)[C@@H](O)[C@H](O[C@@H]2O[C@@H](C)[C@](O)(C=O)[C@H]2O[C@@H]2O[C@@H](CO)[C@H](O)[C@@H](O)[C@@H]2NC)[C@@H](N/C(N)=N\[H])[C@@H]1O` [Streptomycin], the “type of antibacterial action against F. tularensis” value is “bactericidal”.
In the case of `O=C(N[C@H](CO)[C@H](O)c1ccc([N+](=O)[O-])cc1)C(Cl)Cl` [chloramphenicol], the “type of antibacterial action against F. tularensis” value was “bacteriostatic”.
